Structures are written as SMILES.

The term IC50 denotes the concentration needed to halve the response being measured. A lower IC50 goes with higher potency. Usually IC90 stands for the concentration at which the effect reaches the 90% level.

Format in all cases: cell-based
Assay [1] deals with H196, a small cell lung cancer cell line. The assay is described as follows: MTT tetrazolium dye proliferation assay. The note with it: H196 cells, 5 days; for IC50: 50% inhibition of cell proliferation; for IC90: 90% inhibition of cell proliferation. As to the method: Proliferation was evaluated in an adherent cell line by the tetrazolium dye assay according to the procedure of Denizot and Lang (F. Denizot and R. Lang J. Immunol. Methods 1986, 89, 271-277). The cell line used was H196, a small cell lung cancer cell line obtained from the ATCC (ATCC Number CRL-5823™). The cells were grown in RPMI 1640 medium supplemented with 2.5% fetal bovine serum.
Cells were seeded into clear 96 well tissue culture treated plates at 20,000 cells per well. Plates were incubated overnight at 37° C. in a humidified incubator with 5% CO2. The next day, test compounds were serially diluted to three times the final concentration in the appropriate growth medium. 50 μL of a 3× dilution of drug was added per well for a final volume of 150 uL/well. Six concentrations were tested for each compound ranging from 10 μM to 30 nM. […] 50 μL of 0.75% DMSO in growth media was added per well for a final volume of 150 uL/well. The plates were returned to the incubator and, after 5 days, the plates were analyzed as follows: 3-(4,5-dimethylthiazol-2-yl)-2,5-diphenyl-2H-tetrazolium bromide (thiazolyl blue; MTT; Sigma) was added to each well to yield a final concentration of 1.25 mg/mL. Plates were returned to the incubator for 3 hours. The MTT-containing medium was removed and the resulting formazan metabolite was solubilized in 100% ethanol while shaking for 10 minutes at room temperature. Absorbances were read in a plate reader at a wavelength of 570 nm with a 660 nm reference. The concentrations of compounds leading to 50% and 90% inhibition of cell proliferation were determined by using the curve-fitting functionality of Microsoft Excel from plots of the logarithm of the concentration versus percent inhibition. These concentrations represent the IC50 and IC90 values, respectively.

The subject of assay [2] is HeLa cells. The assay is described as follows: CellTiter-Glo luminescent cell viability (cytotoxicity) assay. The note with it: 10 μM test compound, inhibition of luminescence compared to control cells. Here is the method:
Cytotoxicity was assessed using Promega's CellTiter-Glo® luminescent cell viability assay (Promega Corporation, Madison, Wis., USA) as described in Promega Technical Bulletin TB288, revised August 2008. The assay was performed in HeLa cells at a maximum concentration tested of 10 μM of test compound. This assay measures the amount of adenosine triphosphate (ATP) present as a way of quantifying the presence and degree of metabolic activity in cell cultures.
Viable Hela cells were plated at a density of 3000 cells/well in 96 wells in black, clear bottom plates. Cells were allowed to attach to the plate by incubating overnight at 37° C. Test compounds were diluted in DMSO then further diluted in 10% FBS media. Media was removed from the cell plates and 50 μL of the solution was added to each well manually with the exception of the control well, which contained the same volume of 10% FBS media which includes 1% DMSO. Cells were incubated in the presence of compound undisturbed for 48 hours at 37° C. After the 48 hour compound exposure, 50 μL of the pCellTiter Glo® reagent was added. The cell plates were agitated on a shaker for 2 minutes to help lyse the cells. The plate was covered and read for luminescence.
Percent inhibition was calculated as follows: PCT_INHIB=100*[(U−T)/U] Where U represents the Luminescence of wells containing untreated cells and
T represents the Luminescence of wells containing compound-treated cells

Assay [3] relates to H146 cell line. The assay is described as follows: MTS tetrazolium assay (proliferation, non-adherent cell line). The note with it: H146 cells, 5 days; for IC50: 50% inhibition of cell proliferation; for IC90: 90% inhibition of cell proliferation. Here is the method:
Proliferation was evaluated in a non-adherent cell line using the MTS tetrazolium dye assay according to the procedure of Malich and colleagues (G. Malich et al. Toxicology 1997, 124, 179-192). The cell line used was H146 (ATCC Number HTB-173™). The cells were grown in RPMI 1640 medium supplemented with 2.5% fetal bovine serum.
Cells were seeded into clear 96 well tissue culture treated plates at 20,000 cells per well. Plates were incubated overnight at 37° C. in a humidified incubator with 5% CO2. The next day, test compounds were serially diluted to three times the final concentration in the appropriate growth medium. 50 μL of a 3× dilution of drug was added per well for a final volume of 150 uL/well. […] 50 μL of 0.75% DMSO in growth media was added per well for a final volume of 150 uL/well. The plates were returned to the incubator. After 5 days CellTiter 96® AQueous One Solution (Promega Corporation, Madison, Wis., USA) (25 μL/well) was added to each well and the plates were placed back in the incubator for 2-3 h. The absorbance at 490 nm was measured for each well using a plate reader. The concentrations of compounds leading to 50% and 90% inhibition of cell proliferation were determined by using the curve-fitting functionality of Microsoft Excel from plots of the logarithm of the concentration versus percent inhibition. These concentrations represent the IC50 and IC90 values, respectively.

For `COc1ccc(Cl)c(CN(Cc2cccc(CN3C(C(=O)N[C@H]4C[C@H]5C[C@@H]([C@@H]4C)C5(C)C)CCS3(=O)=O)c2)[C@H](CN(C)C)CC(C)(C)C)c1F` (single isomer, unassigned; epimer 1) [Example 25], the half-inhibitory concentration (IC50) is 1400 nM in assay [1] and 1600 nM in assay [3]. Also, the results for the IC90 in assay [1] and in assay [3] were 1900 nM and 3100 nM, respectively. Moreover, the inhibition at 10 µM in assay [2] (Homo sapiens, HeLa, 48 h, read-out: Activity (PCT_INHIB @ 10 μM)) turned out to be 96%.

In assay [1] (NCI-H196, 120 h), `COc1ccc(Cl)c(CN(Cc2cccc(CN3C(C(=O)N[C@H]4C[C@H]5C[C@@H]([C@@H]4C)C5(C)C)CCS3(=O)=O)c2)[C@H](CN(C)C)CC(C)(C)C)c1F` (single isomer, unassigned; epimer 2) [Example 26] returned an IC50 of 1300 nM and an IC90 of 1800 nM. Moreover, the “Activity (PCT_INHIB @ 10 μM)” value in assay [2] (48 hours, 10 µM) stood at 97%. Further, in assay [3], the concentration for half-maximal inhibition (IC50) was found to be 700 nM and the 90% effect concentration (IC90) came out at 1200 nM.
